Test results from BindingDB's records for PubMed 39369482 (Univ. Lille).

Target: Insulin-regulated aminopeptidase (Homo sapiens)
Assay: Inhibition of recombinant human IRAP using L-AMC as substrate preincubated for 30 mins followed by substrate addition and measured after 1 hr by fluorescence based assay

Row | IC50 [µM] | SMILES
1 | 60.3 | O=C(NO)c1ccc(S(=O)(=O)N2CCCCC2)s1
2 | 88.1 | O=C(O)c1cccc(S(=O)(=O)N2CCCC2)c1
3 | 13.3 | CN1C(=O)SC(Cc2ccc(C(=O)O)cc2)C1=O (configuration not stated)

Second part, the molecule before the results:

Row | SMILES | IC50 [µM]
4 | O=C1N=C(S)SC1=Cc1ccc(C(=O)O)cc1 | 40.9
5 | O=C(Cc1ccc(S(=O)(=O)N2CCCCC2)s1)NO | 16.3
6 | O=C(O)c1cccc(S(=O)(=O)N2CCCCC2)c1 | 14.4
7 | O=C(O)c1cccc(S(=O)(=O)N2CCC(F)CC2)c1 | 15.1
